Source: patent publication US11608341B2, “Substituted tetrahydropyrazolo[3,4-d]pyrimidines and tetrahydropyrazolo[4,3-d]pyrimidines as C5A receptor modulators” (Idorsia Pharmaceuticals Ltd., priority 2018, dated 2023)

Target: T1, C5AR1 (Homo sapiens, UniProt P21730)
T1 construct: host or cells: CHO-K1
T1 sequence (P21730 1-350): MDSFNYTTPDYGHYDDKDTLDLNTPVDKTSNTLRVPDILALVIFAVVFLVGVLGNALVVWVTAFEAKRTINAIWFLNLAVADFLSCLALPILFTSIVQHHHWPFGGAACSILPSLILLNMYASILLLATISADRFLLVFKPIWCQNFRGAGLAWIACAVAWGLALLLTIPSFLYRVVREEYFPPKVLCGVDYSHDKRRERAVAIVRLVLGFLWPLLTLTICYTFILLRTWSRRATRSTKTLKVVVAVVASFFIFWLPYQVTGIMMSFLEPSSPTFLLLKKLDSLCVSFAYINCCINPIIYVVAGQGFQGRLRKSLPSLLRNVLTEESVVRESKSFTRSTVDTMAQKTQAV
Experiment: In vitro assay: antagonism of C5a-induced beta-arrestin recruitment (PathHunter) in CHO-K1 C5AR1 beta-arrestin cell line
Type: cell-based
Settings: antagonistic activity, 1-10 nM C5a agonist, geometric mean where several measurements, read-out: C5aR IC50
How it was run: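 Antagonist or DMSO added first, then C5a (1-10 nM, added at 6-fold end concentration), 1.5 h at 37 °C. PathHunter detection reagent was added for 45 min at RT before plate reading. IC50s come from antagonist serial dilutions in nmol/l and are geometric means of several measurements.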

Row | IC50 | SMILES
1 | 0.02 µM | Cc1cccc(F)c1N1CCC(N2Cc3cn(C[C@H]4CCN4C(=O)OC(C)(C)C)nc3N(Cc3ccccc3C(F)(F)F)C2=O)CC1 [Example 129]
2 | 0.39 µM | Cc1cccc(F)c1N1CCC(N2Cc3cn(C[C@H]4CCN4)nc3N(Cc3ccccc3C(F)(F)F)C2=O)CC1 [Example 130]
3 | 0.1 µM | Cc1cccc(F)c1N1CCC(N2Cc3cn(C4CN(C(=O)C(C)C)C4)nc3N(Cc3ccccc3C(F)(F)F)C2=O)CC1 [Example 131]
4 | 0.008 µM | Cc1cccc(F)c1N1CCC(N2Cc3cn(C4CN(C(=O)OCC(C)C)C4)nc3N(Cc3ccccc3C(F)(F)F)C2=O)CC1 [Example 132]
5 | 0.022 µM | COC(=O)N1CC[C@@H]1Cn1cc2c(n1)N(Cc1ccccc1C(F)(F)F)C(=O)N(C1CCN(c3c(C)cccc3F)CC1)C2 [Example 133]
6 | 0.013 µM | CCOC(=O)N1CC[C@@H]1Cn1cc2c(n1)N(Cc1ccccc1C(F)(F)F)C(=O)N(C1CCN(c3c(C)cccc3F)CC1)C2 [Example 134]
7 | 0.017 µM | Cc1cccc(F)c1N1CCC(N2Cc3cn(C[C@H]4CCN4C(=O)OC(C)C)nc3N(Cc3ccccc3C(F)(F)F)C2=O)CC1 [Example 135]
8 | 0.163 µM | Cc1cccc(F)c1N1CCC(N2Cc3cn(C4CN(S(C)(=O)=O)C4)nc3N(Cc3ccccc3C(F)(F)F)C2=O)CC1 [Example 136]
9 | 0.081 µM | Cc1cccc(F)c1N1CCC(N2Cc3cn(C4CN(S(=O)(=O)N(C)C)C4)nc3N(Cc3ccccc3C(F)(F)F)C2=O)CC1 [Example 137]
10 | 0.011 µM | COc1nccc(C)c1N1CCC(N2Cc3cn(C)nc3N(Cc3ncccc3C(F)(F)F)C2=O)CC1 [Example 138]
11 | 0.018 µM | Cc1cccc(F)c1N1CCC(N2Cc3cn(C4CN(C(=O)OC5COC5)C4)nc3N(Cc3ccccc3C(F)(F)F)C2=O)CC1 [Example 139]
12 | 0.018 µM | Cc1cccc(F)c1N1CCC(N2Cc3cn(C4CN(C(=O)OC5(C(F)(F)F)COC5)C4)nc3N(Cc3ccccc3C(F)(F)F)C2=O)CC1 [Example 140]
13 | 0.021 µM | Cc1cccc(F)c1N1CCC(N2Cc3cn(C4CN(C(=O)OC5(C)COC5)C4)nc3N(Cc3ccccc3C(F)(F)F)C2=O)CC1 [Example 141]
14 | 0.032 µM | Cc1nnc(N2CC(n3cc4c(n3)N(Cc3ccccc3C(F)(F)F)C(=O)N(C3CCN(c5c(C)cccc5F)CC3)C4)C2)o1 [Example 142]
15 | 0.017 µM | Cc1cccc(F)c1N1CCC(N2Cc3cn(C4CN(c5nnc(C(C)C)o5)C4)nc3N(Cc3ccccc3C(F)(F)F)C2=O)CC1 [Example 143]
16 | 0.014 µM | Cc1cccc(F)c1N1CCC(N2Cc3cn(C4CN(c5nnc(C(F)(F)F)o5)C4)nc3N(Cc3ccccc3C(F)(F)F)C2=O)CC1 [Example 144]
17 | 0.032 µM | COc1nccc(C)c1N1CCC(N2Cc3nn(C)nc3N(Cc3ncccc3C(F)(F)F)C2=O)CC1 [Example 146]
18 | 0.152 µM | Cc1cccc(F)c1N1CCC(N2Cc3cn(C(=O)OC(C)C)nc3N(Cc3ccccc3C(F)(F)F)C2=O)CC1 [Example 147]
19 | 0.341 µM | Cc1cccc(F)c1N1CCC(N2Cc3cn(C(=O)OCC(C)C)nc3N(Cc3ccccc3C(F)(F)F)C2=O)CC1 [Example 148]
20 | 0.07 µM | Cc1cccc(F)c1N1CCC(N2Cc3cn(C(=O)N(C)C)nc3N(Cc3ccccc3C(F)(F)F)C2=O)CC1 [Example 149]
21 | 0.767 µM | Cc1cccc(F)c1N1CCC(N2Cc3cn(C(=O)N(C)CC(C)C)nc3N(Cc3ccccc3C(F)(F)F)C2=O)CC1 [Example 150]
22 | 0.04 µM | CC(C)=Cn1cc2c(n1)N(Cc1ccccc1C(F)(F)F)C(=O)N(C1CCN(c3c(C)cccc3F)CC1)C2 [Example 153]
23 | 0.026 µM | C=C(C)Cn1cc2c(n1)N(Cc1ccccc1C(F)(F)F)C(=O)N(C1CCN(c3c(C)cccc3F)CC1)C2 [Example 154]
24 | 0.025 µM | Cc1cccc(F)c1N1CCC(N2Cc3cn(CC(C)C)nc3N(Cc3ccccc3C(F)(F)F)C2=O)CC1 [Example 155]
25 | 0.017 µM | Cc1cccc(F)c1N1CCC(N2Cc3cn(C4CNC4=O)nc3N(Cc3ccccc3C(F)(F)F)C2=O)CC1 (stereo not shown) [Example 157]

Row | IC50 | SMILES
26 | 0.011 µM | Cc1cccc(F)c1N1CCC(N2Cc3cn(CC4(C)CC4)nc3N(Cc3ccccc3C(F)(F)F)C2=O)CC1 [Example 158]
27 | 0.008 µM | Cc1cccc(F)c1N1CCC(N2Cc3cn(CC(F)F)nc3N(Cc3ccccc3C(F)(F)F)C2=O)CC1 [Example 159]
28 | 0.147 µM | C#CC(C)(C)n1cc2c(n1)N(Cc1ccccc1C(F)(F)F)C(=O)N(C1CCN(c3c(C)cccc3F)CC1)C2 [Example 160]
29 | 0.007 µM | Cc1cccc(F)c1N1CCC(N2Cc3cn(C(C)C)nc3N(Cc3ccccc3C(F)(F)F)C2=O)CC1 [Example 161]
30 | 0.013 µM | Cc1cccc(F)c1N1CCC(N2Cc3cn(CC4(F)COC4)nc3N(Cc3ccccc3C(F)(F)F)C2=O)CC1 [Example 164]
31 | 0.008 µM | Cc1cccc(F)c1N1CCC(N2Cc3cn(CC4CC4)nc3N(Cc3ccccc3C(F)(F)F)C2=O)CC1 [Example 165]
32 | 0.012 µM | Cc1cccc(F)c1N1CCC(N2Cc3cn(CC4(C)COC4)nc3N(Cc3ccccc3C(F)(F)F)C2=O)CC1 [Example 166]
33 | 0.01 µM | Cc1cccc(F)c1N1CCC(N2Cc3cn(CC4(F)CC4)nc3N(Cc3ccccc3C(F)(F)F)C2=O)CC1 [Example 167]
34 | 0.006 µM | Cc1cccc(F)c1N1CCC(N2Cc3cn(CC(C)(C)F)nc3N(Cc3ccccc3C(F)(F)F)C2=O)CC1 [Example 168]
35 | 0.008 µM | CCn1cc2c(n1)N(Cc1ccccc1C(F)(F)F)C(=O)N(C1CCN(c3c(C)cccc3F)CC1)C2 [Example 169]
36 | 0.017 µM | Cc1cccc(F)c1N1CCC(N2Cc3cn(CC4(O)COC4)nc3N(Cc3ccccc3C(F)(F)F)C2=O)CC1 [Example 171]
37 | 0.015 µM | Cc1cccc(F)c1N1CCC(N2Cc3cn(C(C)(C)C)nc3N(Cc3ccccc3C(F)(F)F)C2=O)CC1 [Example 173]
38 | 0.007 µM | Cc1cccc(F)c1N1CCC(N2Cc3cn(C4CC4)nc3N(Cc3ccccc3C(F)(F)F)C2=O)CC1 [Example 174]
39 | 0.014 µM | Cc1cccc(F)c1N1CCC(N2Cc3nn(C4CC4)cc3N(Cc3ccccc3C(F)(F)F)C2=O)CC1 [Example 175]
40 | 0.016 µM | Cc1cccc(F)c1N1CCC(N2Cc3nn(CC(C)(C)F)cc3N(Cc3ccccc3C(F)(F)F)C2=O)CC1 [Example 176]
41 | 0.048 µM | Cc1cccc(F)c1N1CCC(N2Cc3c(cnn3CC(C)(C)F)N(Cc3ccccc3C(F)(F)F)C2=O)CC1 [Example 177]
42 | 0.016 µM | Cc1cccc(F)c1N1CCC(N2Cc3nn(CC4CC4)cc3N(Cc3ccccc3C(F)(F)F)C2=O)CC1 [Example 178]
43 | 0.152 µM | Cc1cccc(F)c1N1CCC(N2Cc3c(cnn3CC3CC3)N(Cc3ccccc3C(F)(F)F)C2=O)CC1 [Example 179]
44 | 0.011 µM | Cc1cccc(F)c1N1CCC(N2Cc3nn(CC4(C)CC4)cc3N(Cc3ccccc3C(F)(F)F)C2=O)CC1 [Example 180]
45 | 0.05 µM | Cc1cccc(F)c1N1CCC(N2Cc3c(cnn3CC3(C)CC3)N(Cc3ccccc3C(F)(F)F)C2=O)CC1 [Example 181]
46 | 0.03 µM | CCn1cc2c(n1)CN(C1CCN(c3c(C)cccc3F)CC1)C(=O)N2Cc1ccccc1C(F)(F)F [Example 182]
47 | 0.022 µM | Cc1cccc(F)c1N1CCC(N2Cc3nn(C(C)(C)C)cc3N(Cc3ccccc3C(F)(F)F)C2=O)CC1 [Example 183]
48 | 0.009 µM | Cc1cccc(F)c1N1CCC(N2Cc3nn(CC4(F)CC4)cc3N(Cc3ccccc3C(F)(F)F)C2=O)CC1 [Example 184]
49 | 0.004 µM | Cc1cccc(F)c1N1CCC(N2Cc3nn(C(C)C)cc3N(Cc3ccccc3C(F)(F)F)C2=O)CC1 [Example 191]
